Laboratory results as given in patent publication US11147812B2, “Tyrosine analogues derivatives as Rho-kinase inhibitors” (Chiesi Farmaceutici S.p.A., priority 2017, dated 2021).

Experiments:
Rho kinase 1 (ROCK1) = Rho kinase 1 (ROCK1) (Homo sapiens, UniProt Q13464); experiment: In vitro Rho kinase inhibitory activity assay (ADP-Glo), ROCK1; assay type: biochemical; settings: 10 μM ATP, 25° C., Ki by Cheng-Prusoff
Procedure: (§1) The effectiveness of compounds of the present invention to inhibit Rho kinase activity can be determined in a 10 μl assay containing 40 mM Tris pH7.5, 20 mM MgCl2 0.1 mg/ml BSA, 50 μM DTT and 2.5 μM peptide substrate (Myelin Basic Protein) using an ADP-Glo kit (Promega). Compounds were dissolved in DMSO such that the final concentration of DMSO was 1% in the assay. All reactions/incubations are performed at 25° C. Compound (2 ul) and either Rho kinase 1 or 2 (4 μl) were mixed and incubated for 30 mins. Reactions were initiated by addition of ATP (4 μl) such that the final concentration of ATP in the assay was 10 μM. After a 1 hour incubation 10 μl of ADP-Glo Reagent was added and after a further 45 minute incubation 20 ul of Kinase Detection Buffer was added and the mixture incubated for a further 30 minutes. The luminescent signal was measured on a luminometer. […] Compounds were tested in dose-response format and the inhibition of kinase activity was calculated at each concentration of compound. To determine the IC50 (concentration of compound required to inhibit 50% of the enzyme activity) data were fit to a plot of % inhibition vs Log10 compound concentration using a sigmoidal fit with a variable slope and fixing the maximum to 100% and the minimum to 0%. To determine the Ki values the Cheng-Prusoff equation was utilized (Ki=IC50/(1+[S]/Km)

Rho kinase 2 (ROCK2) = Rho kinase 2 (ROCK2) (Homo sapiens, UniProt O75116); experiment: In vitro Rho kinase inhibitory activity assay (ADP-Glo), ROCK2; assay type: biochemical; settings: 10 μM ATP, 25° C., Ki by Cheng-Prusoff
Procedure: as §1

Chain of Rho kinase 1 (ROCK1) (Q13464 whole entry): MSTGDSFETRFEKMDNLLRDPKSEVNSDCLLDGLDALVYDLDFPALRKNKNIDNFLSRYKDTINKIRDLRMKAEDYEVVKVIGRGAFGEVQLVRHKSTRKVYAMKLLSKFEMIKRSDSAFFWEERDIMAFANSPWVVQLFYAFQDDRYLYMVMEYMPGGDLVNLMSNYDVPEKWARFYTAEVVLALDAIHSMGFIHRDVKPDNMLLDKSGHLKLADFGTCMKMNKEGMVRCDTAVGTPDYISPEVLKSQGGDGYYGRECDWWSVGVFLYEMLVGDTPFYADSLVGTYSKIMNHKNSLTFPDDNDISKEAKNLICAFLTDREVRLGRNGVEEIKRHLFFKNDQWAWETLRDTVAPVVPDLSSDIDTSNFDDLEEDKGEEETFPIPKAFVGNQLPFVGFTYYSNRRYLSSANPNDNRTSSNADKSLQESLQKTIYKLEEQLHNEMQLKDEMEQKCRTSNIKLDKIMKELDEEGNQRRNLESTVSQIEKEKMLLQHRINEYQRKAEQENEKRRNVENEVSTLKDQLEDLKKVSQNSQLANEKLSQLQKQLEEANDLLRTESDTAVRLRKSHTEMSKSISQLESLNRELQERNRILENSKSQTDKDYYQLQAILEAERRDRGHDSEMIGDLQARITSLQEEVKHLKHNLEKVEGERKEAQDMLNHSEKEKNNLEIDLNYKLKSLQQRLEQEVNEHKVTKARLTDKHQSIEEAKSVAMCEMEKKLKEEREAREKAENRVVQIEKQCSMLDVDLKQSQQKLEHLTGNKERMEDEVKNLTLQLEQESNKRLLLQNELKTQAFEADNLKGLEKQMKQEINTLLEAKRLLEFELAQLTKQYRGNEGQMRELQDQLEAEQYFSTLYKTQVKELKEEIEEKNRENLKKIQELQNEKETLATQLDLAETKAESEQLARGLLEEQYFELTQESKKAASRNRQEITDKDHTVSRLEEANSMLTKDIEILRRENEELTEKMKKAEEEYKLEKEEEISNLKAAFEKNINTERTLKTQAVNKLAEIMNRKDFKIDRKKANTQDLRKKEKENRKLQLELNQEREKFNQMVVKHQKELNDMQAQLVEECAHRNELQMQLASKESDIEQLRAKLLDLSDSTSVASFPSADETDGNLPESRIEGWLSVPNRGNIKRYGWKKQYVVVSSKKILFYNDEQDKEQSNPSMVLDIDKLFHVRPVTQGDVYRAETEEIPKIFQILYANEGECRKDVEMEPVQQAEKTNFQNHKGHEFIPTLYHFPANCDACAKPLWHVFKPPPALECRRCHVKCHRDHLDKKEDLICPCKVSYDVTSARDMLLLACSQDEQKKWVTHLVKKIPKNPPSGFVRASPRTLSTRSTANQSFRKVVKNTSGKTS
Chain of Rho kinase 2 (ROCK2) (O75116 whole entry): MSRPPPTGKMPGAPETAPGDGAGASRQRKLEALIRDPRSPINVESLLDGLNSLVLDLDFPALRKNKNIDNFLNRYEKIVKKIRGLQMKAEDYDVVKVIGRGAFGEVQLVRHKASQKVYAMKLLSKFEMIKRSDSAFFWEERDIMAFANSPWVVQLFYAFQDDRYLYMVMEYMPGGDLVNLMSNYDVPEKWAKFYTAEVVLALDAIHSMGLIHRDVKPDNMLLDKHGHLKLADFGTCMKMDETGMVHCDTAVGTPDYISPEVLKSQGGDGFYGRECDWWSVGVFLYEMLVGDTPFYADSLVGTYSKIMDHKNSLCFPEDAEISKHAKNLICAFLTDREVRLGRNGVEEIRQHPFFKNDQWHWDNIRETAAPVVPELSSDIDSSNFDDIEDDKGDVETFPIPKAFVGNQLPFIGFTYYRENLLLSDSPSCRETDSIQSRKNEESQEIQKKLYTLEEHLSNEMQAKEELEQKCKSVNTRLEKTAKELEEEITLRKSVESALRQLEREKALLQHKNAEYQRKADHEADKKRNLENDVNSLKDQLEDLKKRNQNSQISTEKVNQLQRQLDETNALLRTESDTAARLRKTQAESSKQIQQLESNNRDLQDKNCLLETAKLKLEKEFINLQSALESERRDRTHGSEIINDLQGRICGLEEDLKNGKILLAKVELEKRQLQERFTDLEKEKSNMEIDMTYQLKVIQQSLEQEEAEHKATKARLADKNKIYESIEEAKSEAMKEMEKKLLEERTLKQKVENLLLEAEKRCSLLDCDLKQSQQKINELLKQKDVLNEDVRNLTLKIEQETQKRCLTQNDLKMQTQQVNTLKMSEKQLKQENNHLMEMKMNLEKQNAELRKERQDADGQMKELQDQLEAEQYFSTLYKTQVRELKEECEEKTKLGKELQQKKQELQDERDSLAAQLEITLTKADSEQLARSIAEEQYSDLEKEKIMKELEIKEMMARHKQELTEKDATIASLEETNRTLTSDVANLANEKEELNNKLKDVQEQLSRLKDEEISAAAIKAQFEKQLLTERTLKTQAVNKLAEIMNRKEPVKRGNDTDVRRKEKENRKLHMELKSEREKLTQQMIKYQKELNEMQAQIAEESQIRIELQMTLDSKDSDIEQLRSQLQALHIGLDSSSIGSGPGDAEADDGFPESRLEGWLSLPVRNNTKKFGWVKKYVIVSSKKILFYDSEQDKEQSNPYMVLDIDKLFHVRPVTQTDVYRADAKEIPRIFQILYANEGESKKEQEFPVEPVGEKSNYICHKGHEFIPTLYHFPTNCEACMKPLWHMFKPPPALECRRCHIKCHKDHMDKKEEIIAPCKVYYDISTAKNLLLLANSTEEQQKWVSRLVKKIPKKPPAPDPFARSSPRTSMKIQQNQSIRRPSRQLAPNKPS

Compound: Cc1c[nH]c2nccc(Oc3ccc(CC(CN)C(=O)N4CCN(Cc5ccccc5)CC4)cc3F)c12 (stereo not drawn) [Example 29, 3-amino-1-(4-benzylpiperazin-1-yl)-2-(3-fluoro-4-((3-methyl-1H-pyrrolo[2,3-b]pyridin-4-yl)oxy)benzyl)propan-1-one]
- Ki (Rho kinase 1 (ROCK1)): < 3 nM
- Ki (Rho kinase 2 (ROCK2)): < 3 nM

Compound: Cc1c[nH]c2nccc(Oc3ccc(CC(CN)C(=O)N4CCN(Cc5ccccc5)CC4)cc3)c12 (stereo not drawn) [Example 30, 3-amino-1-(4-benzylpiperazin-1-yl)-2-(4-((3-methyl-1H-pyrrolo[2,3-b]pyridin-4-yl)oxy)benzyl)propan-1-one]
- Ki (Rho kinase 1 (ROCK1)): < 3 nM
- Ki (Rho kinase 2 (ROCK2)): < 3 nM

Compound: Cc1c[nH]c2nccc(Oc3ccc(CC(CN)C(=O)NC4CCCCC4)cc3)c12 (stereo not drawn) [Example 31, 3-amino-N-cyclohexyl-2-(4-((3-methyl-1H-pyrrolo[2,3-b]pyridin-4-yl)oxy)benzyl)propanamide]
- Ki (Rho kinase 1 (ROCK1)): < 3 nM
- Ki (Rho kinase 2 (ROCK2)): < 3 nM

Compound: NCC(Cc1ccc(Oc2ccnc3[nH]ccc23)cc1)C(=O)N1CCN(Cc2ccccc2)CC1 (stereo not drawn) [Example 32, 2-(4-((1H-pyrrolo[2,3-b]pyridin-4-yl)oxy)benzyl)-3-amino-1-(4-benzylpiperazin-1-yl)propan-1-one]
- Ki (Rho kinase 1 (ROCK1)): < 3 nM
- Ki (Rho kinase 2 (ROCK2)): < 3 nM

Compound: NCC(Cc1ccc(Oc2ccnc3[nH]ccc23)cc1)C(=O)NC1CCCCC1 (stereo not drawn) [Example 33, 2-(4-((1H-pyrrolo[2,3-b]pyridin-4-yl)oxy)benzyl)-3-amino-N-cyclohexylpropanamide]
- Ki (Rho kinase 1 (ROCK1)): 3 to 30 nM
- Ki (Rho kinase 2 (ROCK2)): 3 to 30 nM

Compound: NCC(Cc1ccc(Oc2ccnc3[nH]ccc23)cc1)C(=O)NC1CCOCC1 (stereo not drawn) [Example 34, 2-(4-((1H-pyrrolo[2,3-b]pyridin-4-yl)oxy)benzyl)-3-amino-N-(tetrahydro-2H-pyran-4-yl)propanamide]
- Ki (Rho kinase 1 (ROCK1)): 3 to 30 nM
- Ki (Rho kinase 2 (ROCK2)): 3 to 30 nM

Compound: COCCCNC(=O)C(CN)Cc1ccc(Oc2ccnc3[nH]ccc23)cc1 (stereo not drawn) [Example 35, 2-(4-((1H-pyrrolo[2,3-b]pyridin-4-yl)oxy)benzyl)-3-amino-N-(3-methoxypropyl)propanamide]
- Ki (Rho kinase 1 (ROCK1)): 3 to 30 nM
- Ki (Rho kinase 2 (ROCK2)): 3 to 30 nM

Compound: CNCC(Cc1ccc(Oc2ccnc3[nH]cc(C)c23)cc1)C(=O)N1CCN(Cc2ccccc2)CC1 (stereo not drawn) [Example 36, 1-(4-benzylpiperazin-1-yl)-2-(4-((3-methyl-1H-pyrrolo[2,3-b]pyridin-4-yl)oxy)benzyl)-3-(methylamino)propan-1-one]
- Ki (Rho kinase 1 (ROCK1)): < 3 nM
- Ki (Rho kinase 2 (ROCK2)): < 3 nM

Compound: Cc1c[nH]c2nccc(Oc3ccc(CC(CN(C)C)C(=O)N4CCN(Cc5ccccc5)CC4)cc3)c12 (stereo not drawn) [Example 37, 1-(4-benzylpiperazin-1-yl)-3-(dimethylamino)-2-(4-((3-methyl-1H-pyrrolo[2,3-b]pyridin-4-yl)oxy)benzyl)propan-1-one]
- Ki (Rho kinase 1 (ROCK1)): < 3 nM
- Ki (Rho kinase 2 (ROCK2)): < 3 nM

Compound: Cc1c[nH]c2nccc(Oc3ccc(C4CC(=O)N(CCCN(C)C)CN4)cc3)c12 (stereo not drawn) [Example 38, 3-(3-(dimethylamino)propyl)-6-(4-((3-methyl-1H-pyrrolo[2,3-b]pyridin-4-yl)oxy)phenyl)tetrahydropyrimidin-4(1H)-one]
- Ki (Rho kinase 1 (ROCK1)): > 30 nM
- Ki (Rho kinase 2 (ROCK2)): > 30 nM

Compound: COCCCN1CNC(c2ccc(Oc3ccnc4[nH]cc(C)c34)cc2)CC1=O (stereo not drawn) [Example 39, 3-(3-methoxypropyl)-6-(4-((3-methyl-1H-pyrrolo[2,3-b]pyridin-4-yl)oxy)phenyl)tetrahydropyrimidin-4(1H)-one]
- Ki (Rho kinase 1 (ROCK1)): > 30 nM
- Ki (Rho kinase 2 (ROCK2)): > 30 nM

Compound: Cc1c[nH]c2nccc(Oc3ccc(C4CC(=O)N(CCc5ccncc5)CN4)cc3)c12 (stereo not drawn) [Example 40, 6-(4-((3-methyl-1H-pyrrolo[2,3-b]pyridin-4-yl)oxy)phenyl)-3-(2-(pyridin-4-yl)ethyl)tetrahydropyrimidin-4(1H)-one]
- Ki (Rho kinase 1 (ROCK1)): > 30 nM
- Ki (Rho kinase 2 (ROCK2)): > 30 nM

Compound: Cc1c[nH]c2nccc(Oc3ccc(CC4CNCN(CCCN(C)C)C4=O)cc3F)c12 (stereo not drawn) [Example 41, 3-(3-(dimethylamino)propyl)-5-(3-fluoro-4-((3-methyl-1H-pyrrolo[2,3-b]pyridin-4-yl)oxy)benzyl)tetrahydropyrimidin-4(1H)-one]
- Ki (Rho kinase 1 (ROCK1)): 3 to 30 nM
- Ki (Rho kinase 2 (ROCK2)): 3 to 30 nM

Compound: COCCCN1CNCC(Cc2ccc(Oc3ccnc4[nH]cc(C)c34)c(F)c2)C1=O (stereo not drawn) [Example 42, 5-(3-fluoro-4-((3-methyl-1H-pyrrolo[2,3-b]pyridin-4-yl)oxy)benzyl)-3-(3-methoxypropyl)tetrahydropyrimidin-4(1H)-one]
- Ki (Rho kinase 1 (ROCK1)): > 30 nM
- Ki (Rho kinase 2 (ROCK2)): 3 to 30 nM

Compound: Cc1c[nH]c2nccc(Oc3ccc(CC4CNCN(CCc5ccncc5)C4=O)cc3F)c12 (stereo not drawn) [Example 43, 5-(3-fluoro-4-((3-methyl-1H-pyrrolo[2,3-b]pyridin-4-yl)oxy)benzyl)-3-(2-(pyridin-4-yl)ethyl)tetrahydropyrimidin-4(1H)-one]
- Ki (Rho kinase 1 (ROCK1)): > 30 nM
- Ki (Rho kinase 2 (ROCK2)): > 30 nM

Compound: CN(C)CCCNC(=O)C(CN)Cc1ccc(Oc2ccnc3[nH]cc(C#N)c23)cc1 (stereo not drawn) [Example 44, 3-amino-2-(4-((3-cyano-1H-pyrrolo[2,3-b]pyridin-4-yl)oxy)benzyl)-N-(3-(dimethylamino)propyl)propanamide]
- Ki (Rho kinase 1 (ROCK1)): < 3 nM
- Ki (Rho kinase 2 (ROCK2)): < 3 nM

Compound: CN(C)CCCN1CNCC(Cc2ccc(Oc3ccnc4[nH]cc(C#N)c34)cc2)C1=O (stereo not drawn) [Example 45, 4-(4-((1-(3-(dimethylamino)propyl)-6-oxohexahydropyrimidin-5-yl)methyl)phenoxy)-1H-pyrrolo[2,3-b]pyridine-3-carbonitrile]
- Ki (Rho kinase 1 (ROCK1)): 3 to 30 nM
- Ki (Rho kinase 2 (ROCK2)): 3 to 30 nM

Compound: CN1CCC(NC(=O)C(CN)Cc2ccc(Oc3ccnc4[nH]cc(C#N)c34)cc2)CC1 (stereo not drawn) [Example 46, 3-amino-2-(4-((3-cyano-1H-pyrrolo[2,3-b]pyridin-4-yl)oxy)benzyl)-N-(1-methylpiperidin-4-yl)propanamide]
- Ki (Rho kinase 1 (ROCK1)): < 3 nM
- Ki (Rho kinase 2 (ROCK2)): < 3 nM

Compound: CN1CCC(N2CNCC(Cc3ccc(Oc4ccnc5[nH]cc(C#N)c45)cc3)C2=O)CC1 (stereo not drawn) [Example 47, 4-(4-((1-(1-methylpiperidin-4-yl)-6-oxohexahydropyrimidin-5-yl)methyl)phenoxy)-1H-pyrrolo[2,3-b]pyridine-3-carbonitrile]
- Ki (Rho kinase 1 (ROCK1)): 3 to 30 nM
- Ki (Rho kinase 2 (ROCK2)): 3 to 30 nM

Compound: CN1C[C@@H]2C[C@H]1CN2C(=O)C(CN)Cc1ccc(Oc2ccnc3[nH]cc(C#N)c23)cc1 (stereo partly drawn) [Example 48, 4-(4-(2-(aminomethyl)-3-((1S,4S)-5-methyl-2,5-diazabicyclo[2.2.1]heptan-2-yl)-3-oxopropyl)phenoxy)-1H-pyrrolo[2,3-b]pyridine-3-carbonitrile]
- Ki (Rho kinase 1 (ROCK1)): 3 to 30 nM
- Ki (Rho kinase 2 (ROCK2)): < 3 nM

Compound: N#Cc1c[nH]c2nccc(Oc3ccc(CC(CN)C(=O)N4CCN(Cc5ccccn5)CC4)cc3)c12 (stereo not drawn) [Example 49, 4-(4-(2-(aminomethyl)-3-oxo-3-(4-(pyridin-2-ylmethyl)piperazin-1-yl)propyl)phenoxy)-1H-pyrrolo[2,3-b]pyridine-3-carbonitrile]
- Ki (Rho kinase 1 (ROCK1)): 3 to 30 nM
- Ki (Rho kinase 2 (ROCK2)): < 3 nM
